Values of other authors as cited in patent EP2508186A1, “Phenoxazinones or phenothiazones as inhibitors of amyloid formation” (Max-Delbrück-Centrum für Molekulare Medizin, priority 2011, dated 2012).

Biological target: T1, Aβ42 (Homo sapiens, UniProt P05067)
T1 construct: the amyloid-β 1-42 (Aβ42) peptide
Details: previous biochemical investigations; cited from earlier work

T1 sequence (P05067 672-713 limits assumed): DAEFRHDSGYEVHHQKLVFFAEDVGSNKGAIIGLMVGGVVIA

CN(C)c1ccc2nc3ccc(=[N+](C)C)cc-3sc2c1 [methylene blue]
effect on Aβ42 fibrillogenesis and A11-reactive oligomers: promotes Aβ42 fibrillogenesis and thereby reduces the amount of A11-reactive, potentially toxic amyloid oligomers
